Key:
[1] = test system: TSP-1; assay: Surface plasmon resonance; format: binding; settings: data not shown
[2] = test system: CD36-containing complex / activated VEGFR2; assay: CD36 co-immunoprecipitation of activated VEGFR2; format: cell-based, human; settings: HUVECs, 100 μM for 12 h, then 30 ng/mL VEGF 5 min
Experimental: Figure 3 Anti-angiogenic properties of TAX2 are mediated by TSP-1 binding to CD36 A. Expression of CD36 in HUVECs was assessed by immunoblotting (left panel) and immunofluorescence staining (right panel, red). Nuclei were counterstained with DAPI (blue). B. HUVECs were incubated with 100 μM cyclic TAX2 or in control conditions for 24 h. Then, CD36-containing complexes were co-immunoprecipitated from whole cell extracts (non-specific IgGs were used as a negative control for immunoprecipitation). Immunocomplexes were submitted to SDS-PAGE and immunoblotted (IB) by using specific antibodies for TSP-1 and CD36. The presence of TSP-1 in immunocomplexes was quantified by densitometric analysis relative to immunoprecipitated CD36. C. VEGFR2 phosphorylation induced by VEGF in the presence of TAX2. After overnight serum starvation, HUVECs were pre-treated with 100 μM TAX2 or control for 12 h, then incubated with 30 ng/mL VEGF for 5 min. […] Data are expressed as the mean ± SE (n = 3; *p < 0.05, ANOVA). […] Quantification of total tube-like network length was realized using ImageJ software E. Branching points F. and nodal structures G. were numbered using the S.CORE web-based system. Data are expressed as the mean ± SE (n = 3; *p < 0.05, ANOVA). […]

[3] = test system: tumor vasculature of MIA PaCa-2 xenograft in BALB/C nu/nu mice; assay: MIA PaCa-2 xenograft vascularization (μCT, dissection); format: in vivo, human tumor xenograft in mouse; settings: 10 mg/kg i.p. 3 times a week for 4 weeks
Experimental: For the subcutaneous melanoma tumor model, suspensions of B16F1 cells (2.5 × 10^5 cells in 100 μL RPMI-1640 medium) were subcutaneously injected into the left flank of different randomized series of syngeneic C57BL/6 mice (n = 8–10 per group), as previously described. Intraperitoneal administrations of peptide (10 mg/kg mouse weight) or controls (physiological serum 0.9% (w/v) NaCl or a scrambled peptide) were performed at days 3, 5 and 7. In human pancreatic carcinoma xenograft experiments, 3 × 10^6 MIA PaCa-2 cells/mouse were implanted subcutaneously into the left flank of BALB/C athymic nude mice, then TAX2 intraperitoneal treatments (10 mg/kg mouse weight) were performed 3 times a week during 4 weeks starting at day 10 after tumor cells inoculation. Tumor volume was determined according to v = 0.5 A × B^2, where A denotes the largest dimension of the tumor and B represents the smallest dimension. At days indicated, mice were sacrificed and tumors were surgically extracted and fixed in 4% paraformaldehyde for further morphologic studies and for magnetic resonance imaging, or frozen for immunohistochemistry. Mice were also weighed every 2–3 days and daily checked for any modification in their behavior. Loss of 15% body weight was an indication for euthanasia as well as severe tumor necrosis, as it was sometimes associated with skin ulceration that would result in loss of body fluid and/or infection.
Animals were anesthetized by isoflurane (Forene, Abbott France, Rungis, France) inhalation (3% for induction and 1–1.5% for maintenance) and then after placed in a carbon fibers bed. CT images were acquired on a dedicated small animal μCT scanner (Skyscan 1076, Bruker, Kontich, Belgium) while continuously rotating the camera by 180° with the following parameters: 50 kV, 0.5 mm Al filter, 200 μA source current, 35 μm isotropic resolution, 180 ms exposure time, 4 projection images per 0.7° rotation step and a retrospective synchronization. […] Analysis of reconstructed images and quantification of the vascular network were performed using Amira 5.4.3 software.

CEVSQLLKGDAC (disulfide) [TAX2, CD47-derived cyclic disulfide dodecapeptide …]
binding to TSP-1 by surface plasmon resonance [1]: confirmed | association of activated VEGFR2 to a CD36-containing complex [2]: association of activated VEGFR2 to a CD36-containing complex | tumor vasculature in dissections, day 38 [3]: decreased tumor vasculature | tumor-associated vascular network in 3D reconstruction, day 38 [3]: strongly inhibit tumor-associated vascular network | tumor vascularization until day 38 ([3]; μCT, representative of n = 5): striking alteration of tumor vascularization

From PMC4627230, “Identification of TAX2 peptide as a new unpredicted anti-cancer agent” (Oncotarget, 2015)
